How the values were obtained:
[1] = tested on: HT-29; test: Antiproliferative activity against human HT-29 cells assessed as inhibition of cell growth after 48 hrs by MTT assay; format: functional, cell-based; settings: HT-29, 48 h
[2] = tested on: A549; test: Antiproliferative activity against human A549 cells assessed as inhibition of cell growth after 48 hrs by MTT assay; format: functional, cell-based; settings: A549, 48 h
[3] = tested on: MDA-MB-231; test: Antiproliferative activity against ER negative human MDA-MB-231 cells assessed as inhibition of cell growth after 48 hrs by MTT assay; format: functional, cell-based; settings: MDA-MB-231, 48 h
[4] = tested on: MRC5; test: Antiproliferative activity against human MRC5 cells assessed as inhibition of cell growth after 48 hrs by MTT assay; format: functional, cell-based; settings: MRC5, 48 h
[5] = Antiproliferative activity against human PC3 cells assessed as inhibition of cell growth after 48 hrs by MTT assay; format: functional, cell-based; settings: PC-3, 48 h
[6] = tested on: HeLa; test: Antiproliferative activity against human HeLa cells assessed as inhibition of cell growth after 48 hrs by MTT assay; format: functional, cell-based
[7] = tested on: MCF7; test: Antiproliferative activity against ER positive human MCF7 cells assessed as inhibition of cell growth after 48 hrs by MTT assay; format: functional, cell-based; settings: MCF7, 48 h
[8] = tested on: MCF7; test: Cell cycle arrest in human MCF7 cells assessed as cells accumulation at G2/M phase at IC50 concentration after 48 hrs by flow cytometry (Rvb =21.32 %); format: functional
[9] = tested on: MCF7; test: Cell cycle arrest in human MCF7 cells assessed as cells accumulation at subG1 phase at IC50 concentration after 48 hrs by flow cytometry (Rvb =1.83 %); format: functional
[10] = tested on: MCF7; test: Induction of apoptosis in human MCF7 cells assessed as apoptotic morphological changes at IC50 concentration after 48 hrs by light microscopy; format: functional
[11] = tested on: MCF7; test: Cell cycle arrest in human MCF7 cells assessed as cells accumulation at G0/G1 phase at IC50 concentration after 48 hrs by flow cytometry (reference value: 47.55%); format: functional
[12] = tested on: MCF7; test: Cell cycle arrest in human MCF7 cells assessed as cells accumulation at S phase at IC50 concentration after 48 hrs by flow cytometry (reference value: 29.30%); format: functional

SMILES	IC50 [1] [µM]	IC50 [2] [µM]	IC50 [3] [µM]	IC50 [4] [µM]	IC50 [5] [µM]	IC50 [6] [µM]	IC50 [7] [µM]	Activity [8] [%]	Activity [9] [%]	Activity [10] [%]	Activity [11] [%]	Activity [12] [%]
C[C@]12CC[C@H](O)CC1=CC[C@@H]1[C@@H]2CC[C@@]2(C)[C@H]1CC[C@@]2(O)Cc1ccccn1	48.2	> 100	> 100	> 100	6.3	75.2	96.1					
C[C@]12CC[C@H](O)CC1=CC[C@@H]1[C@@H]2CC[C@]2(C)/C(=C/c3ccccn3)CC[C@@H]12	> 100	> 100	> 100	> 100	> 100	> 100	> 100					
C[C@]12CCC(=O)C=C1CC[C@@H]1[C@@H]2CC[C@]2(C)/C(=C/c3ccccn3)CC[C@@H]12	> 100	> 100	> 100	> 100		> 100	> 100					
C[C@]12CCC(=O)C=C1CC[C@@H]1[C@@H]2CC[C@@]2(C)[C@H]1CC[C@@]2(O)Cc1ccccn1	> 100	57.5	> 100	> 100	> 100	57.8	> 100					
C[C@]12CCNC(=O)C=C1CC[C@@H]1[C@@H]2CC[C@]2(C)/C(=C/c3ccccn3)CC[C@@H]12	> 100	19.8	12.7	> 100	60.1	> 100	32.2					
C[C@]12C/C(=C/O)C(=O)C=C1CC[C@@H]1[C@@H]2CC[C@]2(C)/C(=C/c3ccccn3)CC[C@@H]12	> 100	> 100	> 100	> 100	> 100	> 100	> 100					
C[C@]12C/C(=C/O)C(=O)C=C1CC[C@@H]1[C@@H]2CC[C@@]2(C)[C@H]1CC[C@@]2(O)Cc1ccccn1	> 100	> 100	19	> 100	> 100	> 100	34.4					
C[C@]12C/C(=N/O)C(=O)C=C1CC[C@@H]1[C@@H]2CC[C@@]2(C)[C@H]1CC[C@@]2(O)Cc1ccccn1	> 100	> 100	> 100	> 100	> 100	> 100	51.3					
C[C@]12C/C(=N\O)C(=O)c3noc(c31)C[C@@H]1[C@@H]2CC[C@@]2(C)[C@H]1CC[C@@]2(O)Cc1ccccn1	> 100	> 100	50.4	> 100	6.6	> 100	25.3					
C[C@]12C/C(=N/O)C(=O)/C(=N\O)C1=CC[C@@H]1[C@@H]2CC[C@@]2(C)[C@H]1CC[C@@]2(O)Cc1ccccn1	56	10.3	1.7	> 100	8.7	81.8	40.1	21.23	2.08	12.2	47.66	29.03
C[C@]1(CC#N)C(C#N)=CC[C@@H]2[C@@H]1CC[C@@]1(C)[C@H]2CC[C@@]1(O)Cc1ccccn1	71.8	> 100	7.9	> 100	31.5	> 100	18.2	21.12	1.48		46.06	31.34
COc1cccc2c1C(=O)c1c(O)c3c(c(O)c1C2=O)C[C@@](O)(C(=O)CO)C[C@@H]3O[C@H]1C[C@H](N)[C@H](O)[C@H](C)O1 [DOXORUBICIN]	7.86	0.32	0.75				0.12					
C[C@]12CCC(=O)C(O)=C1CC[C@@H]1[C@@H]2CC[C@]2(C)C(=O)CC[C@@H]12 [FORMESTANE]	> 100	> 100	> 100	> 100	48.4		55.5	24.54	1.18	11.5	54.8	19.48

— ChEMBL document CHEMBL3400025, “Synthesis, structural analysis and antitumor activity of novel 17α-picolyl and 17(E)-picolinylidene A-modified androstane derivatives” (Bioorg Med Chem, 2015)
